{"source": "patent US9150632B2", "about": "(Indiana University Research and Technology Corporation, priority 2009, dated 2015)", "key": {"[1]": {"settings": "pH 7"}, "[2]": {"assay": "Body weight, body composition and food intake in diet-induced obesity (DIO) mice", "type": "in vivo", "description": "[…] 6 mice per group with initial average body weight of 44 g were tested. Body weight, body composition, food intake, and blood glucose levels were determined periodically.\nBody weight was measured before injection and at 1, 3, 5, and 7 days post-injection.\nChanges in body weight of and food intake by the mice were measured 0, 1, 3, 5, 7, 8, 10, 12, and 14 days after injection. Blood glucose levels of the mice were monitored throughout the 14 days. Glucose tolerance tests were performed by injecting a 25% glucose in saline solution 1 hour or 24 hours after administration of the acylated or pegylated peptide and measuring blood glucose levels at −60, 0, 15, 30, 60, or 120 min after the glucose injection.\nThe acylated glucagon analogs were as follows:\nC57BI/6 mice were obtained from Jackson Laboratories and fed a diabetogenic diet from Research Diets, a high sucrose diet with 58% kcal from fat. Mice were single or group-housed on a 12:12-h light-dark cycle at 22° C. with free access to food and water. All studies were approved by and performed according to the guidelines of the Institutional Animal Care and Use Committee of the University of Cincinnati.\nWhole body composition (fat and lean mass) was measured using NMR technology (EchoMRI, Houston, Tex.).\nThe peptides were administered daily for two weeks to 11 groups of 8 C57Bl/6 mice by subcutaneous injection at a dose of 10 or 30 nmol/kg. […]"}}, "note": "No end group written: not given here.", "data": [{"substance": "Glucagon, Cys17PEG5K: Glucagon Cys17(1-29) reacted with mPEG-Mal-5000", "values": [{"measurement": "Percent Soluble", "setting": "[1]", "result": 94, "unit": "%"}]}, {"substance": "HXQGTFTSDYSKYLDEQAAKEFICWLMNT-NH2 [Chimera-2-AIB^2 Cys^24-40 kD]", "values": [{"measurement": "ability to lower body weight", "setting": "[2]; i.p. 15 or 70 nmol/kg, 7 days post-injection", "result": "comparable ability to lower body weight"}]}, {"substance": "Peptide U: SEQ ID NO: 1 with Glu16, Gln17, Ala18, Lys20, Glu21, Ile23, Cys24 with 20-kd pegylation, no AIB2, no lactam (HSQGTFTSDYSKYLDEQAAKEFIC(PEG 20 kDa)WLMNT)", "values": [{"measurement": "body weight lowering", "setting": "[2]; each day for one week at 50 nmol/kg s.c.", "result": "-13.71 ± 0.92", "unit": "g"}]}]}
